# Assays:
# HIV-1NL4-3 = experiment: P4-MAGI assay; format: cell-based; conditions: Human immunodeficiency virus 1, 24 h, P4 cells, 24 hour incubation, β-galactosidase expression; read-out: P4-MAGI IC50
# In short: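 HeLa-derived CD4+ P4 cells carrying an LTR-driven lacZ were infected with HIV-1NL4-3 at MOI 1 with DEAE-Dextran, then compound added in increasing concentrations right after virus; infection reported as Tat-induced β-galactosidase. TC50 measured by WST-1 in mock-infected cells.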
# [1] = tested on: HIV-1 laboratory strain, NL4-3; experiment: MT-4 cytoprotection assay; format: cell-based; conditions: Human immunodeficiency virus 1, NL43, MT4, 96 h; MT-4 cells, four days incubation, WST-1 readout; read-out: MT4 EC50
# In short: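 MT-4 cells mock- or batch-infected with NL4-3 (MOI 0.0005) for 2 h, washed, then cultured 4 days with increasing compound concentrations. Viability read by WST-1 tetrazolium reduction: cytoprotection in infected cells, toxicity in mock-infected cells.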
SMILES,IC50 (HIV-1NL4-3) [nM],EC50 [1] [nM]
C=C(C)[C@@H]1CC[C@]2(C(=O)NCCc3cccc(C(=O)NCc4ccc(C(=O)NCc5ncccc5C(=O)O)cc4)c3)CC[C@]3(C)C(CCC4[C@@]5(C)CC[C@H](O)C(C)(C)C5CC[C@]43C)C12 (stereo partly drawn) [Example 195],6,5
C=C(C)[C@@H]1CC[C@]2(C(=O)NCCc3cccc(C(=O)NCc4ccc(OCCCN5CCOCC5)cc4)c3)CC[C@]3(C)C(CCC4[C@@]5(C)CC[C@H](O)C(C)(C)C5CC[C@]43C)C12 (stereo partly drawn) [Example 196],13,12.5
C=C(C)[C@@H]1CC[C@]2(C(=O)NCCc3cccc(C(=O)NCc4ccccc4O)c3)CC[C@]3(C)C(CCC4[C@@]5(C)CC[C@H](O)C(C)(C)C5CC[C@]43C)C12 (stereo partly drawn) [Example 198],57.6,468
C=C(C)[C@@H]1CC[C@]2(C(=O)NCCc3cccc(C(=O)NCc4ccccc4)c3)CC[C@]3(C)C(CCC4[C@@]5(C)CC[C@H](O)C(C)(C)C5CC[C@]43C)C12 (stereo partly drawn) [Example 199],53.2,297
C=C(C)[C@@H]1CC[C@]2(C(=O)NCCc3cccc(C(=O)NCc4ccccc4OC)c3)CC[C@]3(C)C(CCC4[C@@]5(C)CC[C@H](O)C(C)(C)C5CC[C@]43C)C12 (stereo partly drawn) [Example 200],76.3,759
C=C(C)[C@@H]1CC[C@]2(C(=O)NCCc3cccc(C(=O)NCc4ccc(C(=O)OC)cn4)c3)CC[C@]3(C)C(CCC4[C@@]5(C)CCC(=O)C(C)(C)C5CC[C@]43C)C12 (stereo partly drawn) [Example 201],28.8,15.5
C=C(C)[C@@H]1CC[C@]2(C(=O)NCCc3cccc(C(=O)NCc4ccc(C(=O)O)cn4)c3)CC[C@]3(C)C(CCC4[C@@]5(C)CCC(=O)C(C)(C)C5CC[C@]43C)C12 (stereo partly drawn) [Example 202],22.2,20.5
C=C(C)[C@@H]1CC[C@]2(C(=O)NCCc3cccc(C(=O)NCc4cccc(COCc5cccc(C(=O)O)c5)c4)c3)CC[C@]3(C)C(CCC4[C@@]5(C)CC[C@H](O)C(C)(C)C5CC[C@]43C)C12 (stereo partly drawn) [Example 208],28.9,42.5
C=C(C)[C@@H]1CC[C@]2(C(=O)NCCc3cccc(C(=O)NCC4CCC(C(=O)OC)CC4)c3)CC[C@]3(C)C(CCC4[C@@]5(C)CC[C@H](O)C(C)(C)C5CC[C@]43C)C12 (stereo partly drawn) [Example 210],30.8,33
C=C(C)[C@@H]1CC[C@]2(C(=O)NCCc3cccc(C(=O)NCC4CCC(C(=O)O)CC4)c3)CC[C@]3(C)C(CCC4[C@@]5(C)CC[C@H](O)C(C)(C)C5CC[C@]43C)C12 (stereo partly drawn) [Example 211],11.2,19
C=C(C)[C@@H]1CC[C@]2(C(=O)NCCc3cccc(C(=O)NCC4(CC(=O)O)CCCCC4)c3)CC[C@]3(C)C(CCC4[C@@]5(C)CC[C@H](O)C(C)(C)C5CC[C@]43C)C12 (stereo partly drawn) [Example 212],85,96.5
C=C(C)[C@@H]1CC[C@]2(C(=O)NCCc3cccc(C(=O)N[C@H](C)C4CCC(C(=O)OC)CC4)c3)CC[C@]3(C)C(CCC4[C@@]5(C)CC[C@H](O)C(C)(C)C5CC[C@]43C)C12 (stereo partly drawn) [Example 213],38.9,22
C=C(C)[C@@H]1CC[C@]2(C(=O)NCCc3cccc(C(=O)NCC4OC5OC(C)(C)O[C@@H]5[C@@H](O)[C@@H]4O)c3)CC[C@]3(C)C(CCC4[C@@]5(C)CC[C@H](O)C(C)(C)C5CC[C@]43C)C12 (stereo partly drawn) [Example 214],200,214
C=C(C)[C@@H]1CC[C@]2(C(=O)NCCc3cccc(C(=O)N[C@H](C)C4CCC(C(=O)O)CC4)c3)CC[C@]3(C)C(CCC4[C@@]5(C)CC[C@H](O)C(C)(C)C5CC[C@]43C)C12 (stereo partly drawn) [Example 215],22,11.5
C=C(C)[C@@H]1CC[C@]2(C(=O)NCCc3cccc(-c4nnc(Cc5ccc(C#N)cc5)o4)c3)CC[C@]3(C)C(CCC4[C@@]5(C)CC[C@H](O)C(C)(C)C5CC[C@]43C)C12 (stereo partly drawn) [Example 216],66.5,2700
C=C(C)[C@@H]1CC[C@]2(C(=O)NCCc3cccc(-c4nnc(Cc5ccc(-c6nn[nH]n6)cc5)o4)c3)CC[C@]3(C)C(CCC4[C@@]5(C)CC[C@H](O)C(C)(C)C5CC[C@]43C)C12 (stereo partly drawn) [Example 217],87,49
C=C(C)[C@@H]1CC[C@]2(C(=O)NCCc3cccc(C(=O)NCc4ccc(C(=O)N[C@H](CC(=O)OC)C(=O)OC)cn4)c3)CC[C@]3(C)C(CCC4[C@@]5(C)CC[C@H](O)C(C)(C)C5CC[C@]43C)C12 (stereo partly drawn) [Example 221],9,35
C=C(C)[C@@H]1CC[C@]2(C(=O)NCCc3cccc(C(=O)NCc4ccc(C(=O)N[C@H](CC(=O)O)C(=O)O)cn4)c3)CC[C@]3(C)C(CCC4[C@@]5(C)CC[C@H](O)C(C)(C)C5CC[C@]43C)C12 (stereo partly drawn) [Example 222],65.7,727

SMILES,IC50 (HIV-1NL4-3) [nM],EC50 [1] [nM]
C=C(C)[C@@H]1CC[C@]2(C(=O)NCCc3cccc(C(=O)NCc4ccc(C(=O)N[C@H](CCC(=O)OC)C(=O)OC)cn4)c3)CC[C@]3(C)C(CCC4[C@@]5(C)CC[C@H](O)C(C)(C)C5CC[C@]43C)C12 (stereo partly drawn) [Example 223],21.7,21
C=C(C)[C@@H]1CC[C@]2(C(=O)NCCc3cccc(C(=O)NCc4ccc(C(=O)N[C@H](CCC(=O)O)C(=O)O)cn4)c3)CC[C@]3(C)C(CCC4[C@@]5(C)CC[C@H](O)C(C)(C)C5CC[C@]43C)C12 (stereo partly drawn) [Example 224],35.5,258
C=C(C)[C@@H]1CC[C@]2(C(=O)NCCc3cccc(C(=O)NCc4ccc(C(=O)NC(C(=O)O)C(N)C(=O)O)cn4)c3)CC[C@]3(C)C(CCC4[C@@]5(C)CC[C@H](O)C(C)(C)C5CC[C@]43C)C12 (stereo partly drawn) [Example 225],38.5,53
C=C(C)[C@@H]1CC[C@]2(C(=O)NCCc3cccc(C(=O)NCc4ccc(C(=O)N[C@H](C(=O)O)C(C)C)cn4)c3)CC[C@]3(C)C(CCC4[C@@]5(C)CC[C@H](O)C(C)(C)C5CC[C@]43C)C12 (stereo partly drawn) [Example 226],11.8,102
C=C(C)[C@@H]1CC[C@]2(C(=O)NCCc3cccc(C(=O)NCc4ncccc4C(=O)OC)c3)CC[C@]3(C)C(CCC4[C@@]5(C)CC[C@H](O)C(C)(C)C5CC[C@]43C)C12 (stereo partly drawn) [Example 227],67.5,761
C=C(C)[C@@H]1CC[C@]2(C(=O)NCCc3cccc(C(=O)NCc4cccnc4C(=O)OC)c3)CC[C@]3(C)C(CCC4[C@@]5(C)CC[C@H](O)C(C)(C)C5CC[C@]43C)C12 (stereo partly drawn) [Example 229],7,44
C=C(C)[C@@H]1CC[C@]2(C(=O)NCCc3cccc(C(=O)NCc4cccnc4C(=O)O)c3)CC[C@]3(C)C(CCC4[C@@]5(C)CC[C@H](O)C(C)(C)C5CC[C@]43C)C12 (stereo partly drawn) [Example 230],56,300
C=C(C)[C@@H]1CC[C@]2(C(=O)NCCc3cccc(C(=O)NCc4ccc(OCCCn5ccnc5)cc4)c3)CC[C@]3(C)C(CCC4[C@@]5(C)CC[C@H](O)C(C)(C)C5CC[C@]43C)C12 (stereo partly drawn) [Example 231],14.2,18.5
C=C(C)[C@@H]1CC[C@]2(C(=O)NCCc3cccc(C(=O)NCc4ccc(OCCCO)cc4)c3)CC[C@]3(C)C(CCC4[C@@]5(C)CC[C@H](O)C(C)(C)C5CC[C@]43C)C12 (stereo partly drawn) [Example 232],38.5,71.5
C=C(C)[C@@H]1CC[C@]2(C(=O)NCCc3cccc(C(=O)NCc4ccc(OCCCn5cncc5C(=O)OC)cc4)c3)CC[C@]3(C)C(CCC4[C@@]5(C)CC[C@H](O)C(C)(C)C5CC[C@]43C)C12 (stereo partly drawn) [Example 234],18.5,27
C=C(C)[C@@H]1CC[C@]2(C(=O)NCCc3cccc(C(=O)NCc4ccc(OCCCn5cnc(C(=O)OC)c5)cc4)c3)CC[C@]3(C)C(CCC4[C@@]5(C)CC[C@H](O)C(C)(C)C5CC[C@]43C)C12 (stereo partly drawn) [Example 235],18,66.5
C=C(C)[C@@H]1CC[C@]2(C(=O)NCCc3cccc(C(=O)NCc4ccc(OCCCN5CCN(S(=O)(=O)CC)CC5)cc4)c3)CC[C@]3(C)C(CCC4[C@@]5(C)CC[C@H](O)C(C)(C)C5CC[C@]43C)C12 (stereo partly drawn) [Example 236],19.8,30
C=C(C)[C@@H]1CC[C@]2(C(=O)NCCc3cccc(C(=O)NCc4ccc(O)c(C(=O)OC)c4)c3)CC[C@]3(C)C(CCC4[C@@]5(C)CC[C@H](O)C(C)(C)C5CC[C@]43C)C12 (stereo partly drawn) [Example 239],32.1,105
C=C(C)[C@@H]1CC[C@]2(C(=O)NCCc3cccc(C(=O)NCc4ccc(O)c(C(=O)O)c4)c3)CC[C@]3(C)C(CCC4[C@@]5(C)CC[C@H](O)C(C)(C)C5CC[C@]43C)C12 (stereo partly drawn) [Example 240],19,33
C=C(C)[C@@H]1CC[C@]2(C(=O)NCCc3cccc(C(=O)NCc4ccc(OCCCN5CC(C)NC(C)C5)c(C(=O)O)c4)c3)CC[C@]3(C)C(CCC4[C@@]5(C)CC[C@H](O)C(C)(C)C5CC[C@]43C)C12 (stereo partly drawn) [Example 241],5,22.5
C=C(C)[C@@H]1CC[C@]2(C(=O)NCCc3cccc(C(=O)NCc4ccc(OCCCn5ccnc5)c(C(=O)O)c4)c3)CC[C@]3(C)C(CCC4[C@@]5(C)CC[C@H](O)C(C)(C)C5CC[C@]43C)C12 (stereo partly drawn) [Example 242],41.3,91
C=C(C)[C@@H]1CC[C@]2(C(=O)NCCc3cccc(C(=O)NCc4ccc(OCCCN5CCN(S(=O)(=O)CC)CC5)c(C(=O)O)c4)c3)CC[C@]3(C)C(CCC4[C@@]5(C)CC[C@H](O)C(C)(C)C5CC[C@]43C)C12 (stereo partly drawn) [Example 243],17.5,26
C=C(C)[C@@H]1CC[C@]2(C(=O)NCCc3cccc(C(=O)NCc4ccc(OCCCN5CCNCC5)c(C(=O)O)c4)c3)CC[C@]3(C)C(CCC4[C@@]5(C)CC[C@H](O)C(C)(C)C5CC[C@]43C)C12 (stereo partly drawn) [Example 245],27.4,35

# Source: patent publication US20090275583A1, “ANTIVIRAL COMPOUNDS AND USE THEREOF” (Myriad Genetics, Incorporated, priority 2006, published 2009)
